Measurements published in patent US12202829B2, “Heterocyclic compound” (FIMECS, Inc., priority 2018, dated 2025).
Where a name gives a salt, the structure may show the parent alone.

Molecular target: T1, human XIAP_BIR3 domain purified protein (Homo sapiens, UniProt P98170)
T1 construct: purchased R & D
Test: XIAP binding inhibitory activity, HTRF method with b-Smac ligand
Conditions: test compound 3 μM; first symbol of the cell; read-out: XIAP binding inhibition rate when the concentration of the test compound is 3 μM
Description: Human XIAP binding inhibitory activity were measured by the Homogeneous Time Resolved Fluorescence (HTRF) method with using commercially available human XIAP_BIR3 domain purified protein (R & D) and as a ligand a Smac N-terminal peptide (AVPIAQK (SEQ ID NO: 1)) (hereinafter referred to as “b-Smac”; Peptide Research Laboratories, Inc.) biotinylated at the C-terminus according to a conventional method.
The HTRF method will be described in detail below. A test compound diluted with a reaction buffer was added to a 384-well white shallow bottom plate (Greiner 784076) at 1 μL/well and flash centrifuged for 30 seconds. Subsequently, human XIAP_BIR3 domain purified protein was diluted with the reaction buffer (25 mM HEPES Buffer containing 100 mM NaCl, 0.1% BSA, and 0.1% triton X-100, pH 7.5) to obtain a 90 nM sample diluent, and the resultant sample diluent was added to the above-mentioned white superficial plate at 4.5 μL/well and flash centrifuged for 30 seconds. Subsequently, b-Smac diluted to 90 nM with the reaction buffer was added to the above-mentioned white superficial plat at 4.5 μL/well and flash centrifuged for 30 seconds. A mixed solution of Anti-6 HIS-Cryptate (Eu3+Cryptate-conjugated mouse monoclonal antibody anti-6 Histidine; cisbio) and Streptavidin-XL^ent! (Highgrade XL665-conjugated streptavidin; cisbio) both diluted 100-fold with HTRF detection buffer (cisbio) at a volume ratio of 1:1 was added to the above white superficial plate at 10 μL/well. After flash centrifuging the white shallow bottom plate for 30 seconds, the white shallow bottom plate was left at room temperature for 4 hours or more in the dark. The white superficial plate after being left was subjected to fluorescence intensity measurement (excitation wavelength: 320 nm, fluorescence wavelength: 665 nm and 615 nm) by EnVision (Perkin Elmer).
The binding inhibition rate (%) was calculated based on the HTRF ratio in the presence of the test compound to the HTRF ratio in the absence of the test compound (fluorescence intensity at 665 nm/fluorescence intensity at 615 nm).

T1 sequence (P98170 252-356 limits assumed): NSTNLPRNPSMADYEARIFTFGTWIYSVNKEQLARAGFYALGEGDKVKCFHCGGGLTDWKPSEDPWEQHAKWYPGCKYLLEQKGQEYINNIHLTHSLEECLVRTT

inhibition at 3 µM [%] | SMILES
25 to 50 | CN[C@@H](C)C(=O)N[C@H](C(=O)N1CCN(C(=O)c2c(OCCOCCOCCO)c3cc(F)c(F)cc3n2C)CC1)C1CCCCC1 (stereo in doubt) [Example 62, (S)—N—((S)-1-Cyclohexyl-2-(4-(5,6-difluoro-3-(2-(2-(2-hydroxyethoxy)ethoxy)ethoxy)-1-methyl-1H-indole-2-carbonyl)piperazin-1-yl)-2-oxoethyl)-2-(methylamino)propanamide]
> 75 | CN[C@@H](C)C(=O)N[C@H](C(=O)N1CCN(C(=O)c2cc3ccc(OC)cc3n2C)CC1)C1CCCCC1 [Example 1, (S)—N—((S)-1-Cyclohexyl-2-(4-(6-methoxy-1-methyl-1H-indole-2-carbonyl)piperazin-1-yl)-2-oxoethyl)-2-(methylamino)propanamide Hydrochloride]
25 to 50 | CN[C@@H](C)C(=O)N[C@H](C(=O)N1CCN(C(=O)c2ccn3nccc3c2)CC1)C1CCCCC1 [Example 2, (S)-N-((S)-1-cyclohexyl-2-oxo-2-(4-(pyrazolo[1,5-a]pyridine-5-carbonyl)piperazin-1-yl)ethyl)-2-(methylamino)propanamide]
25 to 50 | CN[C@@H](C)C(=O)N[C@H](C(=O)N1CCN(C(=O)c2cc3ccnn3cc2C)CC1)C1CCCCC1 [Example 3, (S)-N-((S)-1-cyclohexyl-2-(4-(6-methylpyrazolo[1,5-a]pyridine-5-carbonyl)piperazin-1-yl)-2-oxoethyl)-2-(methylamino)propanamide]
50 to 75 | CN[C@@H](C)C(=O)N[C@H](C(=O)N1CCN(C(=O)c2ccn3nccc3c2C)CC1)C1CCCCC1 [Example 4, (S)-N-((S)-1-cyclohexyl-2-(4-(4-methylpyrazolo[1,5-a]pyridine-5-carbonyl)piperazin-1-yl)-2-oxoethyl)-2-(methylamino)propanamide]
25 to 50 | CN[C@@H](C)C(=O)N[C@H](C(=O)N1CCN(C(=O)c2ccn3nccc3c2F)CC1)C1CCCCC1 [Example 5, (S)-N-((S)-1-cyclohexyl-2-(4-(4-fluoropyrazolo[1,5-a]pyridine-5-carbonyl)piperazin-1-yl)-2-oxoethyl)-2-(methylamino)propanamide]
> 25 | CN[C@@H](C)C(=O)N[C@H](C(=O)N1CCN(C(=O)c2cc3ccnn3cc2F)CC1)C1CCCCC1 [Example 6, (S)-N-((S)-1-cyclohexyl-2-(4-(6-fluoropyrazolo[1,5-a]pyridine-5-carbonyl)piperazin-1-yl)-2-oxoethyl)-2-(methylamino)propanamide]
> 75 | CN[C@@H](C)C(=O)N[C@H](C(=O)N1CCN(C(=O)c2cc3ccccn3c2)CC1)C1CCCCC1 [Example 7, (S)-N-((S)-1-cyclohexyl-2-(4-(indolizine-2-carbonyl)piperazin-1-yl)-2-oxoethyl)-2-(methylamino)propanamide]
> 25 | CN[C@@H](C)C(=O)N[C@H](C(=O)N1CCN(C(=O)c2cc(OCCOC)nn2C)CC1)C1CCCCC1 [Example 8, (S)-N-((S)-1-cyclohexyl-2-(4-(3-(2-methoxyethoxy)-1-methyl-1H-pyrazole-5-carbonyl)piperazin-1-yl)-2-oxoethyl)-2-(methylamino)propanamide]
> 25 | CN[C@@H](C)C(=O)N[C@H](C(=O)N1CCN(C(=O)c2cc(C3CC3)nn2C)CC1)C1CCCCC1 [Example 9, (S)-N-((S)-1-cyclohexyl-2-(4-(3-cyclopropyl-1-methyl-1H-pyrazole-5-carbonyl)piperazin-1-yl)-2-oxoethyl)-2-(methylamino)propanamide]
> 25 | CCCc1cc(C(=O)N2CCN(C(=O)[C@@H](NC(=O)[C@H](C)NC)C3CCCCC3)CC2)n(C)n1 [Example 10, (S)-N-((S)-1-cyclohexyl-2-(4-(1-methyl-3-propyl-1H-pyrazole-5-carbonyl)piperazin-1-yl)-2-oxoethyl)-2-(methylamino)propanamide]
> 25 | CN[C@@H](C)C(=O)N[C@H](C(=O)N1CCN(C(=O)c2cc(C(F)(F)F)nn2C)CC1)C1CCCCC1 [Example 11, (S)-N-((S)-1-cyclohexyl-2-(4-(1-methyl-3-(trifluoromethyl)-1H-pyrazole-5-carbonyl)piperazin-1-yl)-2-oxoethyl)-2-(methylamino)propanamide]
> 25 | CCOc1cc(C(=O)N2CCN(C(=O)[C@@H](NC(=O)[C@H](C)NC)C3CCCCC3)CC2)n(C)n1 [Example 12, (S)-N-((S)-1-cyclohexyl-2-(4-(3-ethoxy-1-methyl-1H-pyrazole-5-carbonyl)piperazin-1-yl)-2-oxoethyl)-2-(methylamino)propanamide]
> 25 | CN[C@@H](C)C(=O)N[C@H](C(=O)N1CCN(C(=O)c2cc3cccnc3n2C)CC1)C1CCCCC1 [Example 13, (S)-N-((S)-1-cyclohexyl-2-(4-(1-methyl-1H-pyrrolo[2,3-b]pyridine-2-carbonyl)piperazin-1-yl)-2-oxoethyl)-2-(methylamino)propanamide]
50 to 75 | CN[C@@H](C)C(=O)N[C@H](C(=O)N1CCN(C(=O)c2cc3ccc(F)cc3n2C)CC1)C1CCCCC1 [Example 14, (S)-N-((S)-1-cyclohexyl-2-(4-(6-fluoro-1-methyl-1H-indole-2-carbonyl)piperazin-1-yl)-2-oxoethyl)-2-(methylamino)propanamide]
> 75 | CN[C@@H](C)C(=O)N[C@H](C(=O)N1CCN(C(=O)c2cc3cc(F)ccc3n2C)CC1)C1CCCCC1 [Example 15, (S)-N-((S)-1-cyclohexyl-2-(4-(5-fluoro-1-methyl-1H-indole-2-carbonyl)piperazin-1-yl)-2-oxoethyl)-2-(methylamino)propanamide]
50 to 75 | CN[C@@H](C)C(=O)N[C@H](C(=O)N1CCN(C(=O)c2cc3cccc(C)c3n2C)CC1)C1CCCCC1 [Example 16, (S)-N-((S)-1-cyclohexyl-2-(4-(1,7-dimethyl-1H-indole-2-carbonyl)piperazin-1-yl)-2-oxoethyl)-2-(methylamino)propanamide]
> 25 | CN[C@@H](C)C(=O)N[C@H](C(=O)N1CCN(C(=O)c2ccc3cnn(C)c3c2)CC1)C1CCCCC1 [Example 17, (S)-N-((S)-1-cyclohexyl-2-(4-(1-methyl-1H-indazole-6-carbonyl)piperazin-1-yl)-2-oxoethyl)-2-(methylamino)propanamide]
> 25 | CN[C@@H](C)C(=O)N[C@H](C(=O)N1CCN(C(=O)c2ccc3nc(C)n(C)c3c2)CC1)C1CCCCC1 [Example 18, (S)-N-((S)-1-cyclohexyl-2-(4-(1,2-dimethyl-1H-benzo[d]imidazole-6-carbonyl)piperazin-1-yl)-2-oxoethyl)-2-(methylamino)propanamide]
> 25 | CN[C@@H](C)C(=O)N[C@H](C(=O)N1CCN(C(=O)c2ccc3nc(C)nn3c2)CC1)C1CCCCC1 [Example 19, (S)-N-((S)-1-cyclohexyl-2-(4-(2-methyl-[1,2,4]triazolo[1,5-a]pyridine-6-carbonyl)piperazin-1-yl)-2-oxoethyl)-2-(methylamino)propanamide]
> 75 | CN[C@@H](C)C(=O)N[C@H](C(=O)N1CCN(C(=O)c2ccc3cc(C)cn3c2)CC1)C1CCCCC1 [Example 20, (S)-N-((S)-1-cyclohexyl-2-(4-(2-methylindolizine-6-carbonyl)piperazin-1-yl)-2-oxoethyl)-2-(methylamino)propanamide]
> 25 | CN[C@@H](C)C(=O)N[C@H](C(=O)N1CCN(C(=O)c2ccn3cc(C)nc3c2)CC1)C1CCCCC1 [Example 21, (S)-N-((S)-1-cyclohexyl-2-(4-(2-methylimidazo[1,2-a]pyridine-7-carbonyl)piperazin-1-yl)-2-oxoethyl)-2-(methylamino)propanamide]
25 to 50 | CN[C@@H](C)C(=O)N[C@H](C(=O)N1CCN(C(=O)c2ccc3nn(C)cc3c2)CC1)C1CCCCC1 [Example 22, (S)-N-((S)-1-cyclohexyl-2-(4-(2-methyl-2H-indazole-5-carbonyl)piperazin-l-yl)-2-oxoethyl)-2-(methylamino)propanamide]
> 25 | CN[C@@H](C)C(=O)N[C@H](C(=O)N1CCN(C(=O)c2ccc3c(C)n(C)nc3c2)CC1)C1CCCCC1 [Example 23, (S)-N-((S)-1-cyclohexyl-2-(4-(2,3-dimethyl-2H-indazole-6-carbonyl)piperazin-1-yl)-2-oxoethyl)-2-(methylamino)propanamide]
> 75 | CN[C@@H](C)C(=O)N[C@H](C(=O)N1CCN(C(=O)c2cc3ccc(OC)cc3n2C)C[C@H]1C)C1CCCCC1 [Example 24, (S)—N—((S)-1-cyclohexyl-2-((R)-4-(6-methoxy-1-methyl-1H-indole-2-carbonyl)-2-methylpiperazin-1-yl)-2-oxoethyl)-2-(methylamino)propanamide Hydrochloride]
